Results taken from patent US20100056524A1, “Compound” (priority 2008, published 2010).

target: T1, TBK1 (Homo sapiens, UniProt Q9UHD2); assay: TBK1 protein kinase assay ([γ-33P]ATP, P81 filterplates); assay type: biochemical; settings: 50 μM ATP; read-out: Potency (TBK1 IC50 potency score)
T1 construct: All protein kinases were of human origin and encoded full length proteins, unless indicated otherwise; His6; made in house; host or cells: insect Sf21 cells
T1 sequence (Q9UHD2 1-729): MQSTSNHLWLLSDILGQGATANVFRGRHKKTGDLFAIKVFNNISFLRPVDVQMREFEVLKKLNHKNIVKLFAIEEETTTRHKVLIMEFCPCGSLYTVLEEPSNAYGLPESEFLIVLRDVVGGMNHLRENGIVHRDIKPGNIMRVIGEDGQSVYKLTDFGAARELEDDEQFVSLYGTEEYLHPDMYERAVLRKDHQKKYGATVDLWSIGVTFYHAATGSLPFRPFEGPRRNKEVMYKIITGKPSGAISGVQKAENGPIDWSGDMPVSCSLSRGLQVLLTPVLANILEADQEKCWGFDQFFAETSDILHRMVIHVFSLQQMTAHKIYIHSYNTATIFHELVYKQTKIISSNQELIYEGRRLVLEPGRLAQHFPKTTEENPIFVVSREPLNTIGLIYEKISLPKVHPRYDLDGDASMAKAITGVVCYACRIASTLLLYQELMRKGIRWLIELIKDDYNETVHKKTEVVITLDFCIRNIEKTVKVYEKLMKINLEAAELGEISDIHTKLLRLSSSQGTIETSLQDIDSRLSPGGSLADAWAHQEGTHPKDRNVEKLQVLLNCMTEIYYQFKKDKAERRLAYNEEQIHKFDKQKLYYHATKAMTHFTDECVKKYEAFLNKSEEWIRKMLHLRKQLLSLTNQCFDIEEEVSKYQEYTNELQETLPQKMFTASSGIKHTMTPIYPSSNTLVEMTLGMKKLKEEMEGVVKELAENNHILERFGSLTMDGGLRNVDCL
In short: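 Human TBK1 assayed for 30 min with peptide substrate (300 μM), 50 μM [γ-33P]ATP and 10 mM magnesium acetate in 50 mM Tris/HCl pH 7.5, 0.1 mM EGTA, 0.1% 2-mercaptoethanol. Stopped with orthophosphoric acid and counted on P81 filters. IC50 from 10 compound concentrations.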

| Compound | IC50 [nM] |
| --- | --- |
| O=C(NCCCNc1nc(Nc2ccc(C(=O)N3CCOCC3)cc2)ncc1C1CC1)C1CCC1 [Example 174, Cyclobutanecarboxylic acid (3-{5-cyclopropyl-2-[4-(morpholine-4-carbonyl)-phenylamino]-pyrimidin-4-ylamino}-propyl)-amide] | < 100 |
| CN1CCN(C(=O)c2ccc(Nc3ncc(C4CC4)c(NCCCNC(=O)C4CCC4)n3)cc2)CC1 [Example 175, Cyclobutanecarboxylic acid (3-{5-cyclopropyl-2-[4-(4-methyl-piperazine-1-carbonyl)-phenylamino]-pyrimidin-4-ylamino}-propyl)-amide] | < 100 |
| CN(C)CCN(C)C(=O)c1ccc(Nc2ncc(C3CC3)c(NCCCNC(=O)C3CCC3)n2)cc1 [Example 176, 4-{4-[3-(Cyclobutanecarbonyl-amino)-propylamino]-5-cyclopropyl-pyrimidin-2-ylamino}-N-(2-dimethylamino-ethyl)-N-methyl-benzamide] | < 100 |
| O=C(NCCCNc1nc(Nc2ccc(CCO)cc2)ncc1C1CC1)C1CCC1 [Example 177, Cyclobutanecarboxylic acid (3-{5-cyclopropyl-2-[4-(2-hydroxy-ethyl)-phenylamino]-pyrimidin-4-ylamino}-propyl)-amide] | < 100 |
| O=C(NCCCNc1nc(Nc2ccc3[nH]c(=O)[nH]c3c2)ncc1C1CC1)C1CCC1 [Example 178, Cyclobutanecarboxylic acid {3-[5-cyclopropyl-2-(2-oxo-2,3-dihydro-1H-benzimidazol-5-ylamino)-pyrimidin-4-ylamino]-propyl}-amide] | < 100 |
| Cn1c(=O)n(C)c2cc(Nc3ncc(C4CC4)c(NCCCNC(=O)C4CCC4)n3)ccc21 [Example 179, Cyclobutanecarboxylic acid {3-[5-cyclopropyl-2-(1,3-dimethyl-2-oxo-2,3-dihydro-1H-benzimidazol-5-ylamino)-pyrimidin-4-ylamino]-propyl}-amide] | < 100 |
| CN(C)C(=O)c1ccc(Nc2ncc(C3CC3)c(NCCCNC(=O)C3CCC3)n2)cc1 [Example 180, 4-{4-[3-(Cyclobutanecarbonyl-amino)-propylamino]-5-cyclopropyl-pyrimidin-2-ylamino}-N,N-dimethyl-benzamide] | < 100 |
| O=C(NCCCNc1nc(Nc2ccc(-c3cnco3)cc2)ncc1C1CC1)C1CCC1 [Example 181, Cyclobutanecarboxylic acid {3-[5-cyclopropyl-2-(4-oxazol-5-yl-phenylamino)-pyrimidin-4-ylamino]-propyl}-amide] | < 100 |
| O=C(NCCCNc1nc(Nc2ccc(Cn3cncn3)cc2)ncc1C1CC1)C1CCC1 [Example 182, Cyclobutanecarboxylic acid {3-[5-cyclopropyl-2-(4-1,2,4-triazol-1-ylmethyl-phenylamino)-pyrimidin-4-ylamino]-propyl}-amide] | < 100 |
| O=C(NCCCNc1nc(Nc2ccc(CCN3CCCC3)cc2)ncc1C1CC1)C1CCC1 [Example 183, Cyclobutanecarboxylic acid (3-{5-cyclopropyl-2-[4-(2-pyrrolidin-1-yl-ethyl)-phenylamino]-pyrimidin-4-ylamino}-propyl)-amide] | < 100 |
| O=C(NCCCNc1nc(Nc2ccc(N3CCCC3=O)cc2)ncc1C1CC1)C1CCC1 [Example 184, Cyclobutanecarboxylic acid (3-{5-cyclopropyl-2-[4-(2-oxo-pyrrolidin-1-yl)-phenylamino]-pyrimidin-4-ylamino}-propyl)-amide. xHCl] | < 100 |
| O=C(NCCCNc1nc(Nc2ccc(-c3cnco3)nc2)ncc1C1CC1)C1CCC1 [Example 185, Cyclobutanecarboxylic acid {3-[5-cyclopropyl-2-(6-oxazol-5-yl-pyridin-3-ylamino)-pyrimidin-4-ylamino]-propyl}-amide] | < 100 |
| O=C(NCCCNc1nc(Nc2ccc3nccn3c2)ncc1C1CC1)C1CCC1 [Example 186, Cyclobutanecarboxylic acid {3-[5-cyclopropyl-2-(imidazo[1,2-a]pyridin-6-ylamino)-pyrimidin-4-ylamino]-propyl}-amide] | < 100 |
| O=C(NCCCNc1nc(Nc2ccc(NCC3CCOCC3)nc2)ncc1C1CC1)C1CCC1 [Example 187] | < 100 |
| O=C(NCCCNc1nc(Nc2ccc(OC3CCN(C4CC4)CC3)nc2)ncc1C1CC1)C1CCC1 [Example 188, Cyclobutanecarboxylic acid (3-{5-cyclopropyl-2-[6-(1-cyclopropyl-piperidin-4-yloxy)-pyridin-3-ylamino]-pyrimidin-4-ylamino}-propyl)-amide] | < 100 |
| O=C(NCCCNc1nc(Nc2ccc3ncnn3c2)ncc1C1CC1)C1CCC1 [Example 189, Cyclobutanecarboxylic acid {3-[5-cyclopropyl-2-([1,2,4]triazolo[1,5-a]pyridin-6-ylamino)-pyrimidin-4-ylamino]-propyl}-amide] | < 100 |
| O=C(NCCCNc1nc(Nc2ccc3nccnc3c2)ncc1C1CC1)C1CCC1 [Example 190, Cyclobutanecarboxylic acid {3-[5-cyclopropyl-2-(quinoxalin-6-ylamino)-pyrimidin-4-ylamino]-propyl}-amide] | < 100 |
| O=C(NCCCNc1nc(Nc2ccc3ncccc3c2)ncc1C1CC1)C1CCC1 [Example 191, Cyclobutanecarboxylic acid {3-[5-cyclopropyl-2-(quinolin-6-ylamino)-pyrimidin-4-ylamino]-propyl}-amide] | < 100 |
| O=C(NCCCNc1nc(Nc2cnn(C3CCOCC3)c2)ncc1C1CC1)C1CCC1 [Example 192, Cyclobutanecarboxylic acid (3-{5-cyclopropyl-2-[1-(tetrahydro-pyran-4-yl)-1H-pyrazol-4-ylamino]-pyrimidin-4-ylamino}-propyl)-amide] | < 100 |
| O=C(NCCCNc1nc(Nc2ccc3cnn(CC4CC4)c3c2)ncc1C1CC1)C1CCC1 [Example 193, Cyclobutanecarboxylic acid {3-[5-cyclopropyl-2-(1-cyclopropylmethyl-1H-indazol-6-ylamino)-pyrimidin-4-ylamino]-propyl}-amide] | < 100 |
| O=C(NCCCNc1nc(Nc2ccc3cn(CC4CC4)nc3c2)ncc1C1CC1)C1CCC1 [Example 194, Cyclobutanecarboxylic acid {3-[5-cyclopropyl-2-(2-cyclopropylmethyl-2H-indazol-6-ylamino)-pyrimidin-4-ylamino]-propyl}-amide] | < 100 |
| CN1CCC(Oc2ccc(Nc3ncc(C4CC4)c(NCCCNC(=O)C4CCC4)n3)cn2)CC1 [Example 195, Cyclobutanecarboxylic acid (3-{5-cyclopropyl-2-[6-(1-methyl-piperidin-4-yloxy)-pyridin-3-ylamino]-pyrimidin-4-ylamino}-propyl)-amide] | < 100 |
| CN1CCN(CCOc2ccc(Nc3ncc(C4CC4)c(NCCCNC(=O)C4CCC4)n3)cn2)CC1 [Example 196, Cyclobutanecarboxylic acid [3-(5-cyclopropyl-2-{6-[2-(4-methyl-piperazin-1-yl)-ethoxy]-pyridin-3-ylamino}-pyrimidin-4-ylamino)-propyl]-amide] | < 100 |
| CN1CCc2ccc(Nc3ncc(C4CC4)c(NCCCNC(=O)C4CCC4)n3)cc2C1 [Example 197, Cyclobutanecarboxylic acid {3-[5-cyclopropyl-2-(2-methyl-1,2,3,4-tetrahydro-isoquinolin-7-ylamino)-pyrimidin-4-ylamino]-propyl}-amide] | < 100 |
| Cn1cnc2cc(Nc3ncc(C4CC4)c(NCCCNC(=O)C4CCC4)n3)cnc21 [Example 198, Cyclobutanecarboxylic acid {3-[5-cyclopropyl-2-(3-methyl-3H-imidazo[4,5-b]pyridin-6-ylamino)-pyrimidin-4-ylamino]-propyl}-amide] | < 100 |
| CN1CCc2cc(Nc3ncc(C4CC4)c(NCCCNC(=O)C4CCC4)n3)ccc2C1 [Example 199, Cyclobutanecarboxylic acid {3-[5-cyclopropyl-2-(2-methyl-1,2,3,4-tetrahydro-isoquinolin-6-ylamino)-pyrimidin-4-ylamino]-propyl}-amide] | < 100 |
| Cn1ncc2cc(Nc3ncc(C4CC4)c(NCCCNC(=O)C4CCC4)n3)cnc21 [Example 200, Cyclobutanecarboxylic acid {3-[5-cyclopropyl-2-(1-methyl-1H-pyrazolo[3,4-b]pyridin-5-ylamino)-pyrimidin-4-ylamino]-propyl}-amide] | < 100 |
| O=C(NCCCNc1nc(Nc2cnn(CC3CC3)c2)ncc1C1CC1)C1CCC1 [Example 201, Cyclobutanecarboxylic acid {3-[5-cyclopropyl-2-(1-cyclopropylmethyl-1H-pyrazol-4-ylamino)-pyrimidin-4-ylamino]-propyl}-amide] | < 100 |
| O=C(NCCCNc1nc(Nc2cnn(C3CCC3)c2)ncc1C1CC1)C1CCC1 [Example 202, Cyclobutanecarboxylic acid {3-[2-(1-cyclobutyl-1H-pyrazol-4-ylamino)-5-cyclopropyl-pyrimidin-4-ylamino]-propyl}-amide] | < 100 |
